# Reference: ChEMBL document CHEMBL6109123, “Structure of Mycobacterial NDH-2 Bound to a 2-Mercapto-Quinazolinone Inhibitor” (J Med Chem, 2025)
# Activity calls are given as the source filed them. No cut-off for these calls is given here.
# How the values were obtained:
# [1] = system: Mycolicibacterium smegmatis; assay: Inhibition of Mycobacterium smegmatis GMC_MDM2 NDH2 in inverted membrane vesicle assessed as inhibition of ATP-driven vesicle acidification by fluorescence based analysis; type: cell membranes
# [2] = system: Mycolicibacterium smegmatis; assay: Inhibition of Mycobacterium smegmatis NDH2 in inverted membrane vesicle assessed as inhibition of succinate-driven vesicle acidification by fluorescence based analysis; type: cell membranes
# [3] = system: Mycolicibacterium smegmatis; assay: Inhibition of Mycobacterium smegmatis NDH2 in inverted membrane vesicle assessed as inhibition of […] vesicle acidification by fluorescence based analysis; type: cell membranes
# [4] = system: Mycolicibacterium smegmatis; assay: Inhibition of Mycobacterium smegmatis NDH2 in inverted membrane vesicle assessed as inhibition of […] vesicle acidification at up to 120 uM by fluorescence based analysis; type: cell membranes
# [5] = system: Mycolicibacterium smegmatis; assay: Inhibition of Mycobacterium smegmatis NDH2 in inverted membrane vesicle assessed as inhibition of succinate-driven vesicle acidification at >10 uM by fluorescence based analysis; type: cell membranes
# [6] = Inhibition of recombinant Mycobacterium smegmatis NDH2 catalytic activity in presence of NADH incubated for 1 min by UV-spectrometric analysis; set-up: species or system Mycolicibacterium smegmatis
# [7] = system: Mycolicibacterium smegmatis; assay: Inhibition of Mycobacterium smegmatis GMC_MDM2 NDH2 in inverted membrane vesicle assessed as inhibition of ATP-driven vesicle acidification at >10 uM by fluorescence based analysis; type: cell membranes
SMILES,inhibition [1],inhibition [2],inhibition [3],inhibition [4],inhibition [5],IC50 [6] [nM],inhibition [7]
Nc1nc(Nc2ccc3nc(-c4ccc(F)cc4)cc(N)c3c2)cc(-c2ccc(C(F)(F)F)cc2)n1,Active,Active,Active,,,,
C=C(C)[C@H]1Cc2c(ccc3c2O[C@@H]2COc4cc(OC)c(OC)cc4[C@@H]2C3=O)O1,,,,inactive,,,
O=C(CSc1nc2ccccc2c(=O)[nH]1)NC1CCCCC1,Active,,,,Active; Compound Showed Partial Inhibition Of Succinate Driven Acidification,23,Active; Compound Showed Partial Inhibition Of Atp Driven Acidification
Nc1nc(Nc2ccc3nc(-c4ccc(F)cc4)cc(N)c3c2)cc(-c2ccc(Cl)cc2)n1,Active,Active,Active,,,,
